Source: ChEMBL document CHEMBL1201862, “PubChem BioAssay data set” (2004)
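Where inhibition never reached the appropriate level, the endpoint shown equals the highest concentration tested. Otherwise, values were interpolated linearly from a five-concentration, 48-hour dose response in 96-well plates. GI50 = concentration required for 50% inhibition of growth.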 Active and inactive are the calls of the source. No stated cut-off is given here; in the data, active = GI50 up to about 1.1 µM and inactive = higher.

How the values were obtained:
Test in all cases: growth of human tumour cells (NCI), 48 h
MDA-N = tested on: MDA-N
HT-29 = tested on: HT-29
SNB-19 = tested on: SNB-19
SN12C = tested on: SN12C
NCI-H460 = tested on: NCI-H460
SK-MEL-28 = tested on: SK-MEL-28
MDA-MB-435 = tested on: MDA-MB-435
OVCAR-8 = tested on: OVCAR-8
M14 = tested on: M14
NCI-H23 = tested on: NCI-H23
SW-620 = tested on: SW-620
OVCAR-3 = tested on: OVCAR-3
T47D = tested on: T47D
SK-OV-3 = tested on: SK-OV-3
IGROV-1 = tested on: IGROV-1
UACC-257 = tested on: UACC-257
DU-145 = tested on: DU-145
A498 = tested on: A498
RPMI-8226 = tested on: RPMI-8226
KM12 = tested on: KM12
A549 = tested on: A549
U-251 = tested on: U-251
SK-MEL-5 = tested on: SK-MEL-5
Malme-3M = tested on: Malme-3M
MOLT-4 = tested on: MOLT-4
BT-549 = tested on: BT-549
HOP-92 = tested on: HOP-92
NCI/ADR-RES = tested on: NCI/ADR-RES
COLO 205 = tested on: COLO 205
SNB-75 = tested on: SNB-75
CAKI-1 = tested on: CAKI-1
EKVX = tested on: EKVX
HCT-15 = tested on: HCT-15
HCT-116 = tested on: HCT-116
786-0 = tested on: 786-0
SF-295 = tested on: SF-295
SF-268 = tested on: SF-268
UO-31 = tested on: UO-31
LOX IMVI = tested on: LOX IMVI
OVCAR-5 = tested on: OVCAR-5
MDA-MB-231 = tested on: MDA-MB-231
TK-10 = tested on: TK-10
ACHN = tested on: ACHN
SF-539 = tested on: SF-539
HOP-62 = tested on: HOP-62
NCI-H522 = tested on: NCI-H522
OVCAR-4 = tested on: OVCAR-4
NCI-H226 = tested on: NCI-H226
RXF 393 = tested on: RXF 393
CCRF-CEM = tested on: CCRF-CEM
MCF7 = tested on: MCF7
SR = tested on: SR
HL-60 = tested on: HL-60
PC-3 = tested on: PC-3
SK-MEL-2 = tested on: SK-MEL-2
HCC 2998 = tested on: HCC 2998
K562 = tested on: K562
Hs-578T = tested on: Hs-578T
UACC-62 = tested on: UACC-62

## N#CC(c1nc2ccccc2s1)c1nc(Cl)ncc1Br (centres undefined)
MDA-N
  GI50: 36 µM (inactive)
HT-29
  GI50: 46.5 µM (inactive)
SNB-19
  GI50: 40.6 µM (inactive)
SN12C
  GI50: 30.6 µM (inactive)
NCI-H460
  GI50: 46 µM (inactive)
SK-MEL-28
  GI50: 97.9 µM (inactive)
MDA-MB-435
  GI50: 50.6 µM (inactive)
OVCAR-8
  GI50: 30.4 µM (inactive)
M14
  GI50: 44.6 µM (inactive)
NCI-H23
  GI50: 23.6 µM (inactive)
SW-620
  GI50: 42.6 µM (inactive)
OVCAR-3
  GI50: 27.2 µM (inactive)
T47D
  GI50: 64.7 µM (inactive)
SK-OV-3
  GI50: 36.1 µM (inactive)
IGROV-1
  GI50: 28.9 µM (inactive)
UACC-257
  GI50: 77.4 µM (inactive)
DU-145
  GI50: 45.7 µM (inactive)
A498
  GI50: > 100 µM (inactive)
RPMI-8226
  GI50: 25.4 µM (inactive)
KM12
  GI50: 40.1 µM (inactive)
A549
  GI50: 46.5 µM (inactive)
U-251
  GI50: 29.4 µM (inactive)
SK-MEL-5
  GI50: 19 µM (inactive)
Malme-3M
  GI50: 41.4 µM (inactive)
MOLT-4
  GI50: 72.4 µM (inactive)
BT-549
  GI50: 25.2 µM (inactive)
HOP-92
  GI50: 18.2 µM (inactive)
NCI/ADR-RES
  GI50: 30 µM (inactive)
COLO 205
  GI50: 46.3 µM (inactive)
SNB-75
  GI50: 23.2 µM (inactive)
CAKI-1
  GI50: 33.4 µM (inactive)
EKVX
  GI50: 41.8 µM (inactive)
HCT-15
  GI50: 29.1 µM
HCT-116
  GI50: 23 µM (inactive)
786-0
  GI50: 30.3 µM (inactive)
SF-295
  GI50: 42.2 µM (inactive)
SF-268
  GI50: 34 µM (inactive)
UO-31
  GI50: 36.7 µM (inactive)
LOX IMVI
  GI50: 29.3 µM (inactive)
OVCAR-5
  GI50: > 100 µM (inactive)
MDA-MB-231
  GI50: 39.2 µM (inactive)
TK-10
  GI50: 37.3 µM (inactive)
ACHN
  GI50: 28.2 µM (inactive)
SF-539
  GI50: 31.5 µM (inactive)
HOP-62
  GI50: 34.2 µM (inactive)
NCI-H522
  GI50: 20.7 µM (inactive)
OVCAR-4
  GI50: 47.8 µM (inactive)
NCI-H226
  GI50: 39.5 µM (inactive)
RXF 393
  GI50: 26.9 µM (inactive)

## O=c1[nH]nc(NCCc2ccccc2)c2nnn(Cc3ccccc3)c12
HT-29
  GI50: > 100 µM (inactive)
CCRF-CEM
  GI50: > 100 µM (inactive)
SNB-19
  GI50: > 100 µM (inactive)
SN12C
  GI50: > 100 µM (inactive)
NCI-H460
  GI50: > 100 µM (inactive)
SK-MEL-28
  GI50: > 100 µM (inactive)
MDA-MB-435
  GI50: > 100 µM (inactive)
OVCAR-8
  GI50: > 100 µM (inactive)
M14
  GI50: > 100 µM (inactive)
NCI-H23
  GI50: > 100 µM (inactive)
OVCAR-3
  GI50: > 100 µM (inactive)
MCF7
  GI50: > 100 µM (inactive)
UACC-257
  GI50: > 100 µM (inactive)
DU-145
  GI50: > 100 µM (inactive)
RPMI-8226
  GI50: > 100 µM (inactive)
SR
  GI50: > 100 µM (inactive)
KM12
  GI50: > 100 µM (inactive)
HL-60
  GI50: > 100 µM (inactive)
A549
  GI50: > 100 µM (inactive)
U-251
  GI50: > 100 µM (inactive)
SK-MEL-5
  GI50: > 100 µM (inactive)
Malme-3M
  GI50: > 100 µM (inactive)
MOLT-4
  GI50: > 100 µM (inactive)
BT-549
  GI50: > 100 µM (inactive)
PC-3
  GI50: > 100 µM (inactive)
NCI/ADR-RES
  GI50: > 100 µM (inactive)
COLO 205
  GI50: > 100 µM (inactive)
SNB-75
  GI50: > 100 µM (inactive)
CAKI-1
  GI50: > 100 µM (inactive)
EKVX
  GI50: > 100 µM (inactive)
HCT-15
  GI50: > 100 µM
HCT-116
  GI50: > 100 µM (inactive)
786-0
  GI50: > 100 µM (inactive)
SF-295
  GI50: > 100 µM (inactive)
SF-268
  GI50: > 100 µM (inactive)
UO-31
  GI50: > 100 µM (inactive)
LOX IMVI
  GI50: > 100 µM (inactive)
OVCAR-5
  GI50: > 100 µM (inactive)
MDA-MB-231
  GI50: > 100 µM (inactive)
SK-MEL-2
  GI50: > 100 µM (inactive)
TK-10
  GI50: > 100 µM (inactive)
HCC 2998
  GI50: > 100 µM (inactive)
ACHN
  GI50: > 100 µM (inactive)
K562
  GI50: > 100 µM (inactive)
HOP-62
  GI50: > 100 µM (inactive)
OVCAR-4
  GI50: > 100 µM (inactive)
RXF 393
  GI50: > 100 µM (inactive)

## CN(C)CCCNc1ccc2c(=O)n(CCN(C)C)c(=O)n3c4ccccc4c(=O)c1c23
MDA-N
  GI50: 0.133 µM (active)
HT-29
  GI50: 0.0647 µM (active)
CCRF-CEM
  GI50: 0.132 µM (active)
SNB-19
  GI50: 0.132 µM (active)
SN12C
  GI50: 0.103 µM (active)
NCI-H460
  GI50: 0.0335 µM (active)
SK-MEL-28
  GI50: 0.628 µM (active)
MDA-MB-435
  GI50: 0.259 µM (active)
OVCAR-8
  GI50: 0.22 µM (active)
M14
  GI50: 0.394 µM (active)
NCI-H23
  GI50: 0.236 µM (active)
SW-620
  GI50: 0.0637 µM (active)
OVCAR-3
  GI50: 0.34 µM (active)
Hs-578T
  GI50: 1.49 µM (inactive)
T47D
  GI50: 1.03 µM (active)
SK-OV-3
  GI50: 0.582 µM (active)
MCF7
  GI50: 0.0885 µM (active)
IGROV-1
  GI50: 0.148 µM (active)
UACC-257
  GI50: 0.396 µM (active)
DU-145
  GI50: 0.124 µM (active)
A498
  GI50: 0.309 µM (active)
RPMI-8226
  GI50: 0.129 µM (active)
SR
  GI50: 0.022 µM (active)
KM12
  GI50: 0.159 µM (active)
HL-60
  GI50: 0.15 µM (active)
A549
  GI50: 0.155 µM (active)
U-251
  GI50: 0.234 µM (active)
SK-MEL-5
  GI50: 0.35 µM (active)
Malme-3M
  GI50: 0.286 µM (active)
MOLT-4
  GI50: 0.0268 µM (active)
PC-3
  GI50: 0.258 µM (active)
HOP-92
  GI50: 0.664 µM (active)
NCI/ADR-RES
  GI50: 0.396 µM (active)
COLO 205
  GI50: 0.127 µM (active)
SNB-75
  GI50: 1.1 µM (active)
CAKI-1
  GI50: 0.211 µM (active)
EKVX
  GI50: 0.272 µM (active)
HCT-15
  GI50: 0.0562 µM
HCT-116
  GI50: 0.0752 µM (active)
786-0
  GI50: 0.0419 µM (active)
SF-295
  GI50: 0.245 µM (active)
SF-268
  GI50: 0.603 µM (active)
UO-31
  GI50: 0.355 µM (active)
LOX IMVI
  GI50: 0.144 µM (active)
OVCAR-5
  GI50: 0.356 µM (active)
MDA-MB-231
  GI50: 0.164 µM (active)
SK-MEL-2
  GI50: 0.798 µM (active)
TK-10
  GI50: 0.518 µM (active)
UACC-62
  GI50: 0.342 µM (active)
HCC 2998
  GI50: 0.112 µM (active)
ACHN
  GI50: 0.0752 µM (active)
K562
  GI50: 0.0512 µM (active)
SF-539
  GI50: 0.486 µM (active)
HOP-62
  GI50: 0.351 µM (active)
NCI-H522
  GI50: 0.101 µM (active)
OVCAR-4
  GI50: 0.224 µM (active)
NCI-H226
  GI50: 0.368 µM (active)
RXF 393
  GI50: 0.783 µM (active)
